Measured values published in ChEMBL document CHEMBL3044631, “Synthesis of 2-[4,5-dimethyl-1-(phenylamino)-1H-imidazol-2-ylthio]-N-(thiazole-2-yl)acetamide derivatives and their anticancer activities” (2013).

Tests used:
Assay type in all cases: functional
[1] = test system: OVCAR-3; assay: Anticancer activity against Homo sapiens (human) OVCAR3 cells assessed as cell growth promotion at 10 uM after 48 hr by SRB assay
[2] = test system: SK-OV-3; assay: Anticancer activity against Homo sapiens (human) SKOV3 cells assessed as cell growth promotion at 10 uM after 48 hr by SRB assay
[3] = test system: MCF7; assay: Anticancer activity against Homo sapiens (human) MCF7 cells assessed as cell growth promotion at 10 uM after 48 hr by SRB assay
[4] = test system: NCI/ADR-RES; assay: Anticancer activity against Homo sapiens (human) NCI/ADR-RES cells assessed as cell growth promotion at 10 uM after 48 hr by SRB assay
[5] = test system: SF-539; assay: Anticancer activity against Homo sapiens (human) SF539 cells assessed as cell growth promotion at 10 uM after 48 hr by SRB assay
[6] = test system: K562; assay: Anticancer activity against Homo sapiens (human) K562 cells assessed as cell growth promotion at 10 uM after 48 hr by SRB assay
[7] = test system: SF-268; assay: Anticancer activity against Homo sapiens (human) SF268 cells assessed as cell growth promotion at 10 uM after 48 hr by SRB assay
[8] = test system: SNB-19; assay: Anticancer activity against Homo sapiens (human) SNB19 cells assessed as cell growth promotion at 10 uM after 48 hr by SRB assay
[9] = test system: U-251; assay: Anticancer activity against Homo sapiens (human) U251 cells assessed as cell growth promotion at 10 uM after 48 hr by SRB assay
[10] = test system: BT-549; assay: Anticancer activity against Homo sapiens (human) BT549 cells assessed as cell growth promotion at 10 uM after 48 hr by SRB assay
[11] = test system: SK-MEL-5; assay: Anticancer activity against Homo sapiens (human) SK-MEL-5 cells assessed as cell growth promotion at 10 uM after 48 hr by SRB assay
[12] = test system: HT-29; assay: Anticancer activity against Homo sapiens (human) HT-29 cells assessed as cell growth promotion at 10 uM after 48 hr by SRB assay
[13] = test system: PC-3; assay: Anticancer activity against Homo sapiens (human) PC3 cells assessed as cell growth promotion at 10 uM after 48 hr by SRB assay
[14] = test system: ACHN; assay: Anticancer activity against Homo sapiens (human) ACHN cells assessed as cell growth promotion at 10 uM after 48 hr by SRB assay
[15] = test system: HOP-92; assay: Anticancer activity against Homo sapiens (human) HOP92 cells assessed as cell growth promotion at 10 uM after 48 hr by SRB assay
[16] = test system: CAKI-1; assay: Anticancer activity against Homo sapiens (human) CAKI-1 cells assessed as cell growth promotion at 10 uM after 48 hr by SRB assay
[17] = test system: MDA-MB-231; assay: Anticancer activity against Homo sapiens (human) MDA-MB-231/ATCC cells assessed as cell growth promotion at 10 uM after 48 hr by SRB assay
[18] = test system: OVCAR-5; assay: Anticancer activity against Homo sapiens (human) OVCAR5 cells assessed as cell growth promotion at 10 uM after 48 hr by SRB assay
[19] = test system: HCC 2998; assay: Anticancer activity against Homo sapiens (human) HCC2998 cells assessed as cell growth promotion at 10 uM after 48 hr by SRB assay

| Compound | Activity [1] [%] | Activity [2] [%] | Activity [3] [%] | Activity [4] [%] | Activity [5] [%] | Activity [6] [%] | Activity [7] [%] | Activity [8] [%] | Activity [9] [%] | Activity [10] [%] | Activity [11] [%] | Activity [12] [%] | Activity [13] [%] | Activity [14] [%] | Activity [15] [%] | Activity [16] [%] | Activity [17] [%] | Activity [18] [%] | Activity [19] [%] |
| --- | --- | --- | --- | --- | --- | --- | --- | --- | --- | --- | --- | --- | --- | --- | --- | --- | --- | --- | --- |
| CCOC(=O)c1csc(NC(=O)CSc2nc(C)c(C)n2Nc2ccc(C)cc2)n1 | 108.5 | 90.71 | 80.14 | 70.04 | 73.62 | 78.51 | 102.22 | 75.4 | 76.07 | 91.44 | 47.48 | 52.44 | 88.3 | 76.52 | 44.51 | 80.52 | 62.5 | 74.57 | 96.72 |
| Cc1nc(SCC(=O)Nc2nccs2)n(Nc2ccc(Cl)cc2)c1C | 117.12 | 102.45 | 104.33 | 100.18 | 90.1 | 112.86 | 112.74 | 121.25 | 108.53 | 111.12 | 84.95 | 108.32 | 103.63 | 104.69 | 96.74 | 101.14 | 98.69 | 87.36 | 115.62 |
| COc1ccc(Nn2c(SCC(=O)Nc3nccs3)nc(C)c2C)cc1 | 113.42 | 108.56 | 102.31 | 92.35 | 101.05 | 99.68 | 103.59 | 109.69 | 104.49 | 105.55 | 102.75 | 102.36 | 103.43 | 100.51 | 117.01 | 90.35 | 105.41 | 89.33 | 110.49 |
